Assay results: patent publication US6479482B2, “Alkylamine derivatives of dihydropyridine NPY antagonists” (Bristol-Myers Squibb Company, priority 2000, dated 2002)

Legend:
[1] = system: NPY-induced increase in intracellular Ca^++ in SK-N-MC cells; conditions: cited from earlier work
[2] = system: NPY-induced pressor response; conditions: pithed rat; cited from earlier work
[3] = target: T1, I-125 Bolton-Hunter labeled NPY in human neuroblastoma cells (SK-N-MC) (Homo sapiens, UniProt P25929); conditions: cited from earlier work
T1 construct: displaces I-125 Bolton-Hunter labeled NPY in human neuroblastoma cells (SK-N-MC); endogenous in cells; host or cells: SK-N-MC human neuroblastoma cells
T1 sequence (P25929 1-384): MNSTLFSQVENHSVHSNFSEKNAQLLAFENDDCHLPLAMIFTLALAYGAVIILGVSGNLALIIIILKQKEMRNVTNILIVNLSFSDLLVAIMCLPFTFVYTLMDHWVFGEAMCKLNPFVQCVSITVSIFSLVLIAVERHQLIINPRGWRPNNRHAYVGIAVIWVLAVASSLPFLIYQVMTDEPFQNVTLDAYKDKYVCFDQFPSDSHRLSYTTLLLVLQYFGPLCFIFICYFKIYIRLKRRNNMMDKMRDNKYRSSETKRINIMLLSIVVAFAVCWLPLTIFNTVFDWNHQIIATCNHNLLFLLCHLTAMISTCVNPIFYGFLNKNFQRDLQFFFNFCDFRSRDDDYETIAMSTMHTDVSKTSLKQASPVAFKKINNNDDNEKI

[4] = system: NPY-induced contractions in guinea pig basilar artery; conditions: cited from earlier work
[5] = system: NPY-induced Ca^++ entry in HEL cells; conditions: cited from earlier work
[6] = target: T2, I-125 labeled NPY and PYY in human neuroblastoma cells (Homo sapiens, UniProt P25929); conditions: cited from earlier work
T2 construct: displacing I-125 labeled NPY and PYY in human neuroblastoma cells; endogenous in cells
T2 sequence (P25929 1-384): T1 sequence (P25929 1-384)

[7] = system: NPY-related increases in diastolic blood pressure; conditions: anesthetized guinea pig; cited from earlier work

Row | Structure (SMILES) | melting point | also measured
1 | NC(N)=NCCC[C@@H](NC(=O)C(c1ccccc1)c1ccccc1)C(=O)NCc1ccc(O)cc1 [BIBP 3226] | – | antagonism of NPY-induced increase in intracellular Ca++ [1]: antagonized; antagonism of NPY-induced pressor response [2]: antagonizing; displacement of I-125 Bolton-Hunter labeled NPY [3]: displaces
2 | O=P(O)(O)OC1[C@H](OP(=O)(O)O)[C@H](O)C(O)[C@H](O)[C@H]1OP(=O)(O)O (stereo partly drawn) [D-Myo-inositol-1,2,6-triphosphate] | – | antagonism of NPY-induced contractions [4]: potent but non-competitive antagonist
3 | COC(=O)C1=C(C)NC(C)=C(C(=O)OC)C1c1cccc(NC(=O)NCCCN2CCC3(CC2)OCCO3)c1 [Example 14, 4-[3-[[[[3-(1,4-Dioxa-8-azaspiro[4.5]decan-8-yl)propyl]amino]carbonyl]-amino]phenyl]-1,4-dihydro-2,6-dimethyl-3,5-pyridinedicarboxylic acid, dimethyl ester] | 100 to 105 °C | –
4 | COC(=O)C1=C(C)NC(C)=C(C(=O)OC)C1c1ccc(F)c(NC(=O)NCCCN2CCC(C)CC2)c1 [Example 17, 4-[4-Fluoro-3-[[[[3-(4-methyl-1-piperidinyl)propyl]amino]carbonyl]-amino]phenyl]-1,4-dihydro-2,6-dimethyl-3,5-pyridinedicarboxylic acid, dimethyl ester] | 188 to 190 °C | –
5 | COC(=O)C1=C(C)NC(C)=C(C(=O)OC)C1c1ccc(F)c(NC(=O)NCCCN2CCC(C(C)C)CC2)c1 [Example 20, 4-[4-Fluoro-3-[[[[3-[4-(1-methylethyl)-1-piperidinyl]propyl]amino]-carbonyl]amino]phenyl]-1,4-dihydro-2,6-dimethyl-3,5-pyridinedicarboxylic acid, dimethyl ester] | 176 to 179 °C | –
6 | COC(=O)C1=C(C)NC(C)=C(C(=O)OC)C1c1ccc(F)c(NC(=O)NCCCN2CCC(C(C)(C)C)CC2)c1 [Example 21, 4-[4-Fluoro-3-[[[[3-[4-(1,1-dimethylethyl)-1-piperidinyl]propyl]amino]-carbonyl]amino]phenyl]-1,4-dihydro-2,6-dimethyl-3,5-pyridinedicarboxylic acid, dimethyl ester] | 191 to 193 °C | –
7 | N=C(NCCCc1cnc[nH]1)NCCC(c1cc(F)cc(F)c1)c1ccccn1 (stereo not shown) [He 90481] | – | pA2, antagonism of NPY-induced Ca++ entry [5]: 4.43
8 | CN(C)CC1CCC(CN=C(N)c2ccc(C[C@@H](NC(=O)[C@@H](Cc3ccccc3)NS(=O)(=O)c3ccc4ccccc4c3)C(=O)N3CCCC3)cc2)CC1 (stereo partly shown) [SR 120819A] | – | displacement of I-125 labeled NPY and PYY [6]: displacing; antagonism of NPY-related increases in diastolic blood pressure [7]: antagonized

More lines, main results first:

Row | melting point | Structure (SMILES) | also measured
9 | 145 to 150 °C | COC(=O)C1=C(C)NC(C)=C(C(=O)OC)C1c1cccc(NC(=O)NCCCN2CCN(CC3CC3)CC2)c1.Cl.Cl | –
10 | 175 to 180 °C | COC(=O)C1=C(C)NC(C)=C(C(=O)OC)C1c1cccc(NC(=O)NCCCN2CCN(C(C)(C)C)CC2)c1.Cl.Cl | –
11 | 195 to 200 °C | COC(=O)C1=C(C)NC(C)=C(C(=O)OC)C1c1cccc(NC(=O)NCCCN2CCN(C3CCCC3)CC2)c1.Cl.Cl | –
12 | 120 to 130 °C | COC(=O)C1=C(C)NC(C)=C(C(=O)OC)C1c1cccc(NC(=O)NCCCN2CCNCC2)c1.Cl.Cl | –
13 | 70 to 75 °C | COC(=O)C1=C(C)NC(C)=C(C(=O)OC)C1c1cccc(NC(=O)NCCCN2CCC(=O)CC2)c1.Cl | –
14 | 120 to 125 °C | CCN1CCN(CCCNC(=O)Nc2cccc(C3C(C(=O)OC)=C(C)NC(C)=C3C(=O)OC)c2)CC1.Cl.Cl | –
15 | 190 to 200 °C | CCCN1CCN(CCCNC(=O)Nc2cccc(C3C(C(=O)OC)=C(C)NC(C)=C3C(=O)OC)c2)CC1.Cl.Cl | –
16 | 170 to 180 °C | COC(=O)C1=C(C)NC(C)=C(C(=O)OC)C1c1cccc(NC(=O)NCCCN2CCN(C(C)C)CC2)c1.Cl.Cl | –
17 | 145 to 150 °C | CCCCN1CCN(CCCNC(=O)Nc2cccc(C3C(C(=O)OC)=C(C)NC(C)=C3C(=O)OC)c2)CC1.Cl.Cl | –
18 | 165 to 170 °C | COC(=O)C1=C(C)NC(C)=C(C(=O)OC)C1c1cccc(NC(=O)NCCCN2CCN(CC(C)C)CC2)c1.Cl.Cl | –
19 | 125 to 130 °C | COC(=O)C1=C(C)NC(C)=C(C(=O)OC)C1c1cccc(NC(=O)NCCCN2CCN(C(=O)OC(C)(C)C)CC2)c1 [Example 13, 4-[3-[[[[3-[4-[(1,1-Dimethylethoxy)carbonyl]-1-piperazinyl]propyl]amino]-carbonyl]amino]phenyl]-1,4-dihydro-2,6-dimethyl-3,5-pyridinedicarboxylic acid, dimethyl ester] | –
